For assay [1], the system named is Xenopus oocytes. As to the kind of experiment: Light-evoked photocurrents in voltage-clamped Xenopus oocytes expressing Drosophila phototransduction proteins. In kind it is cell-based. Here is the method:
(§1) Synthetic all-trans retinal (Sigma) was diluted, from a 100-mM stock in DMSO, to 40 μM in the appropriate extracellular recording solution (see below) and allowed to bind to NinaE for 15 min in the dark. A mechanically shuttered (Uniblitz, Vincent Associates) Lambda DG-4 rapid wavelength changer (Sutter Instruments) delivered <2 mW of stimulating light without ultraviolet and infrared (E400LP, Chroma; Hot Mirror, Newport) components through 20×/0.4 (oocytes) or 40×/0.8 W (neurons) Zeiss Achroplan objectives. In some experiments, a short pre-illumination with red light (E600LP plus HQ625/40, both from Chroma) preceded the white-light stimulus. Light source and shutter were controlled through pClamp 8.0 (Axon Instruments) and MetaFluor 4.5 (Universal Imaging).
Stage VI oocytes were microinjected with the specified mRNA mixtures, which were adjusted to keep the doses of individual messages constant at 2–4 fmol/oocyte. Photocurrents were recorded at −80 mV with a two-electrode voltage-clamp amplifier (Axoclamp-2B, Axon Instruments) 2–4 days after mRNA injection. Electrodes (2–3 MΩ) were filled with 3 M KCl; the extracellular recording solution (Barth's Saline) contained, in mM, 87.5 NaCl, 2 KCl, 2.4 NaHCO3, 2 CaCl2, 1 MgCl2, 5 Tris-HCl, pH 7.2. Signals were externally amplified (CyberAmp 380, Axon Instruments) before digitization at 100 Hz (Digidata 1200, Axon Instruments). To block IP3-sensitive Ca^2+ stores where indicated, 20 μM xestospongin C (Gafni et al., 1997; Calbiochem) was present throughout the experiment, beginning with the retinal load.
Unliganded NinaE in the membrane of voltage-clamped oocytes was reconstituted in the dark with 40 μM synthetic all-trans retinal, to form a metarhodopsin-like intermediate that could be further photoconverted (Hillman et al., 1983; Kiselev and Subramaniam, 1994; Ranganathan and Stevens, 1995) to rhodopsin. […]

The subject of assay [2] is hippocampal neurons. The assay can be described thus: Photostimulation of chARGed hippocampal neurons in primary culture, whole-cell current clamp. In kind it is cell-based. The note with it: 50 μM AP-5 plus 10 μM CNQX together; n=5 neurons. How it is done:
as §1
Hippocampal neurons obtained from E19 rats were grown in dissociated cultures (Yuste, Miller et al. “Synapto-pHluorins: chimeras between pH-sensitive mutants of green fluorescent protein and synaptic vesicle membrane proteins as reporters of neurotransmitter release,” Methods Enzymol 522–46 (2000)) and transfected with a calcium phosphate precipitate (pH 7.08) formed from a 1:1 mixture of CsCl-banded pChARGe-1 and pChARGe-2. Neurons were exposed to 4.2 μg/cm^2 of precipitated DNA for 20 minutes. Transfections were done on day 8 after plating, recordings on days 6–10 after transfection. Neurons were identified under DIC and epifluorescence illumination (to distinguish transfected from untransfected cells; FIG. 3) and placed under whole-cell current clamp before reconstitution of NinaE with retinal. Patch pipettes (˜2.5 MΩ) contained, in mM, 120 K-gluconate, 10 KCl, 5 ATP, 0.3 GTP, and 10 K-HEPES, pH 7.2. The extracellular recording solution contained, in mM, 119 NaCl, 2.5 KCl, 2 CaCl2, 1 MgCl2, 30 glucose, 25 Na-HEPES, pH 7.4. Membrane potentials were recorded with an Axoclamp-2B amplifier (Axon Instruments) in bridge mode and digitized at 5 kHz (Digidata 1200, Axon Instruments).
For intracellular recordings of light-evoked electrical activity, neurons were placed under whole-cell current clamp before reconstitution of NinaE with retinal. […] Exposure to white light increased the frequency of action potentials dramatically (FIGS. 4, A–D, and FIG. 5). Peak firing frequencies of 7.5 Hz (evaluated in sliding 2-s windows), equal to those generated by the direct injection of 200–250 pA of sustained depolarizing current into transfected and untransfected neurons, appeared after latency periods of a few hundred ms to several tens of s (n=18 neurons). […]

“Also recorded” adds a separate entry of the source.

Consider `CC1=C(/C=C/C(C)=C/C=C/C(C)=C/C=O)C(C)(C)CCC1` [all-trans retinal], for which the “dependence of light-evoked current responses on reconstitution of NinaE with retinal” value in assay [1] (40 μM all-trans retinal, 15 min in the dark, n=9 oocytes) was “required”. The “photocurrent over time after a single retinal load, in the absence of exogenous retinal” value in assay [1] (NinaE reconstituted with 40 μM all-trans retinal for 15 min, then retinal-free perfusion for hours, n=8 oocytes) is listed as “no attenuation”. For the molecule `C1CCC[C@H]2CCCN3CC[C@@H](CCCCCC[C@@H]4CCCN5CC[C@@H](CC1)O[C@@H]45)O[C@@H]23` [xestospongin C], the “light-evoked current responses in the presence of xestospongin C” value in assay [1] (20 μM xestospongin C present throughout, oocytes expressing 10 photoreceptor proteins, n=5 oocytes) is “inhibited”. As for `N#Cc1cc2c(cc1[N+](=O)[O-])=NC(=O)C(=O)N=2` [CNQX, 6-cyano-7-nitroquinoxaline-2,3-dione], in assay [2], the “EPSPs in the membrane potential record under glutamate receptor block” value is listed as “vanished; also recorded: elimination” and the “light-induced action potentials under glutamate receptor block” value is reported as “persisted”.

Consider `NC(CCCP(=O)(O)O)C(=O)O` (racemic) [AP-5, D,L-2-amino-5-phosphonovaleric acid], for which, in assay [2], the “EPSPs in the membrane potential record under glutamate receptor block” value is “vanished; also recorded: elimination” and the “light-induced action potentials under glutamate receptor block” value is “persisted”.

These data come from US7144733B2, “Bio-synthetic photostimulators and methods of use” (Sloan-Kettering Institute for Cancer Research, priority 2001, dated 2006).
